Data taken from ChEMBL document CHEMBL5579847, “Synthesis, design, and optimization of a potent and selective series of pyridylpiperazines as promising antimalarial agents” (Eur J Med Chem, 2024).
The source made the active and inactive calls. No cut-off for these calls is given here.

Experiments:
[1] = Cytotoxicity against human HepG2 cells assessed as reduction in cell viability after 48 hrs by WST-1 assay; type: toxicity, cell-based
Plasmodium falciparum [2] = test: Antimalarial activity against chloroquine-resistant Plasmodium falciparum Dd2 infected in red blood cells after 96 hrs by SYBR Green I dye based fluorescence assay; type: functional, organism-based, Red blood cell; details: Dd2, Erythrocyte
[3] = Selectivity index, ratio of CC50 for cytotoxicity against human HepG2 cell to IC50 for antimalarial activity against Plasmodium falciparum 3D7 infected in red blood cells; type: toxicity, cell-based; details: read-out: Ratio CC50/IC50
[4] = Selectivity index, ratio of CC50 for cytotoxicity against human HepG2 cell to IC50 for antimalarial activity against chloroquine-resistant Plasmodium falciparum Dd2 infected in red blood cells; type: toxicity, cell-based; details: read-out: Ratio CC50/IC50
Plasmodium falciparum [5] = test: Antimalarial activity against Plasmodium falciparum 3D7 infected in red blood cells after 96 hrs by SYBR Green I dye based fluorescence assay; type: functional, organism-based, Red blood cell; details: 3D7, Erythrocyte
[6] = target: T1, Dihydroorotate dehydrogenase (quinone), mitochondrial (Plasmodium falciparum (isolate 3D7)) (UniProt Q08210); test: Inhibition of Plasmodium falciparum DHODH
T1 sequence (whole entry): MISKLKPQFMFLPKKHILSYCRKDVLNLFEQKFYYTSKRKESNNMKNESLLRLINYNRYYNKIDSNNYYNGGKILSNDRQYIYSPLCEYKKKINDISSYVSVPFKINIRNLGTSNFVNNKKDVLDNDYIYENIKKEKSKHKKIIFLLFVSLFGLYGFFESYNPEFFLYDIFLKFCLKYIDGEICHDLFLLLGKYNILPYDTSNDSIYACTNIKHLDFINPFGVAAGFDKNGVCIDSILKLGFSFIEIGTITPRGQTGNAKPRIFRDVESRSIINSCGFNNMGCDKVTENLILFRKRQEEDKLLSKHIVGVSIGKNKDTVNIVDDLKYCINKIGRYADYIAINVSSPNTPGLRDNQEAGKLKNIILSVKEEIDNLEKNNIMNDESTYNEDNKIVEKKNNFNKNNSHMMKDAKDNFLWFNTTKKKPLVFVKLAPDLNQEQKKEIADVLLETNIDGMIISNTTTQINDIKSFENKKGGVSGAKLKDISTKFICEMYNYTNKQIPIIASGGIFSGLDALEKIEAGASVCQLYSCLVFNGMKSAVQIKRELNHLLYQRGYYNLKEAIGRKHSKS

[7] = target: T1, Dihydroorotate dehydrogenase (quinone), mitochondrial (Plasmodium falciparum (isolate 3D7)); test: Inhibition of Plasmodium falciparum DHODH at 250 uM relative to control

| SMILES | CC50 at 48 h [1] [µM] | IC50 (Plasmodium falciparum [2]) [µM] | selectivity ratio [3] | selectivity ratio [4] | IC50 (Plasmodium falciparum [5]) [µM] | inhibition [6] | inhibition [7] [%] |
| --- | --- | --- | --- | --- | --- | --- | --- |
| N#Cc1cccnc1N1CCN(c2ccc(C(=O)NC3CC3)cn2)CC1 | > 100 | 15 | > 15 | > 7 | 6.7 | – | – |
| Nc1cccnc1N1CCN(c2ccc(C(=O)NC3CC3)cn2)CC1 | – | – | – | – | 46.4 | – | – |
| O=C(NC1CC1)c1ccc(N2CCN(c3ccccc3F)CC2)nc1 | – | 2.3 | – | – | 1.3 | inactive | – |
| O=C(NC1CC1)c1ccc(N2CCN(c3ncccc3[N+](=O)[O-])CC2)nc1 | 51.2 | 10.2 | 9 | 5 | 5.7 | – | – |
| O=C(NC1CC1)c1ccc(N2CCN(S(=O)(=O)c3ccccc3)CC2)nc1 | – | – | – | – | 37.2 | – | – |
| O=C(NC1CC1)c1ccc(N2CCN(C(=O)c3ccccc3)CC2)nc1 | – | – | – | – | > 100 | – | – |
| O=C(NC1CC1)c1ccc(N2CCN(c3ccccc3C(F)(F)F)CC2)nc1 | > 100 | 0.5 | > 59 | > 200 | 1.7 | inactive | 20 |
| O=C(NC1CC1)c1ccc(N2CCN(Cc3ccccc3)CC2)nc1 | 12.1 | 6.1 | 1 | 2 | 10.9 | – | – |
| O=C(NC1CC1)c1ccc(N2CCN(c3ncccc3C(F)(F)F)CC2)nc1 | > 100 | 4.4 | > 96 | > 23 | 1 | inactive | – |
| O=C(NC1CC1)c1ccc(N2CCN(c3ccccn3)CC2)nc1 | > 100 | – | > 7 | – | 13.9 | – | – |
| O=C(NC1CC1)c1ccc(N2CCNCC2)nc1 | – | – | – | – | > 100 | – | – |
| O=C(NC1CC1)c1ccc(N2CCN(c3cccc(O)c3)CC2)nc1 | 36.2 | 7.3 | 9 | 5 | 4.1 | – | – |
| O=C(NC1CC1)c1ccc(N2CCN(C(=O)c3ccccn3)CC2)nc1 | – | – | – | – | > 100 | – | – |
| O=C(NC1CC1)c1ccc(N2CCN(c3ccccc3Cl)CC2)nc1 | – | 0.7 | – | – | 0.4 | – | – |
| COc1ccc(N2CCN(c3ccc(C(=O)NC4CC4)cn3)CC2)cc1 | – | 9.4 | – | – | 2.9 | – | – |
| O=C(NC1CC1)c1ccc(N2CCN(c3cnccn3)CC2)nc1 | > 100 | 3.6 | > 36 | > 28 | 2.8 | inactive | – |
| COc1ccc(CN2CCN(c3ccc(C(=O)NC4CC4)cn3)CC2)cc1 | > 100 | 13 | > 15 | > 8 | 6.5 | – | – |
| O=C(NC1CC1)c1ccc(N2CCN(c3ccccc3)CC2)nc1 | > 100 | 3.3 | > 21 | > 30 | 6 | – | – |
| O=C(NC1CC1)c1ccc(N2CCN(c3ccc(C(F)(F)F)cn3)CC2)nc1 | – | 1.6 | – | – | 1.1 | – | – |
| CCN(CC)CCCC(C)Nc1ccnc2cc(Cl)ccc12 (stereo unspecified) [CHLOROQUINE] | – | – | – | – | 10.2 | – | – |
| CN1CCN(c2ccc(C(=O)NC3CC3)cn2)CC1 | – | – | – | – | > 100 | – | – |
| Cc1ccccc1N1CCN(c2ccc(C(=O)NC3CC3)cn2)CC1 | > 100 | 0.7 | > 100 | > 143 | 1 | – | 30 |
| O=C(NC1CC1)c1ccc(N2CCN(c3ncccn3)CC2)nc1 | – | 10.5 | – | – | 5.6 | – | – |
